Laboratory results taken from paper PMC6692420, “Validation of [^125I]CPCR4.3 as an investigative tool for the sensitive and specific detection of hCXCR4 and mCXCR4 expression in vitro and in vivo” (EJNMMI Research, 2019).
Non-standard residues stand in square brackets, D forms with d. Residues, ends and D or L forms follow the SMILES beside them. dAla(N-(6-guanidinohexyl)) = C[C@@H](NCCCCCCNC(=N)N)C(=O)O; dTyr(3-I) = N[C@H](Cc1ccc(O)c(I)c1)C(=O)O; 2Nal = N[C@@H](Cc1ccc2ccccc2c1)C(=O)O

What was measured:
hCXCR4 = biological target: T1, hCXCR4 (Homo sapiens, UniProt P61073); assay: Competitive binding assay (IC50) on Jurkat cells with [^125I]CPCR4.3 as radioligand; settings: for IC50: Jurkat human T cell leukemia cells, 200,000 cells/sample, radioligand [^125I]CPCR4.3
T1 construct: endogenous hCXCR4 (Jurkat); endogenous in cells
T1 sequence (P61073 whole entry): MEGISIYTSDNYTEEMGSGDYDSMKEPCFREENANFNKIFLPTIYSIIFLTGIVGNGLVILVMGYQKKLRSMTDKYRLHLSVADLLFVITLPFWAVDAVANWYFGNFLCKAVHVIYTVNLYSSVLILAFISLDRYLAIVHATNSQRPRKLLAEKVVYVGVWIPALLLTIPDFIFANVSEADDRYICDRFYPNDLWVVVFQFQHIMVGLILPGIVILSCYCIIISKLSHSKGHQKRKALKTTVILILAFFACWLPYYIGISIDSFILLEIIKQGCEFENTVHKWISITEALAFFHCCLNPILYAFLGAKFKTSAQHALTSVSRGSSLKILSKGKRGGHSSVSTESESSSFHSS
Description: To allow data normalization, [^natGa] […] Experiments were performed in triplicate with n = 3 per concentration in each experiment. IC50 values were calculated using GraphPad Prism 6.01 (Graph Pad Software, San Diego, USA).

mCXCR4 = biological target: T2, mCXCR4 (Mus musculus, UniProt P70658); assay: Competitive binding assay (IC50) on Eμ-Myc 1080 mouse lymphoma cells with [^125I]CPCR4.3 as radioligand; settings: Eμ-Myc1080 mouse B cell lymphoma cells, 200,000 cells/sample, radioligand [^125I]CPCR4.3
T2 construct: endogenous in cells; host or cells: Eμ-myc 1080 mouse B cell lymphoma cells
T2 sequence (P70658 whole entry): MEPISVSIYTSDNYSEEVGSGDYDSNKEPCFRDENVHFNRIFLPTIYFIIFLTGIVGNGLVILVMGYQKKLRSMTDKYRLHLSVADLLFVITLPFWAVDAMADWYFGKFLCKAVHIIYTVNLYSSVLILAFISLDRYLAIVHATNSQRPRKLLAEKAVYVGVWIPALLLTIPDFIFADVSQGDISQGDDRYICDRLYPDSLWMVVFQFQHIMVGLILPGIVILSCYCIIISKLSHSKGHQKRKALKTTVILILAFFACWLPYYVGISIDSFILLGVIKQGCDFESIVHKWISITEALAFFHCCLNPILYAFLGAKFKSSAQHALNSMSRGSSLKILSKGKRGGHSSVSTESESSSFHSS
Description: To allow data normalization, [^natGa] Pentixafor and FC-131 were included as references in this study. Experiments were performed in triplicate with n = 3 per concentration in each experiment. IC50 values were calculated using GraphPad Prism 6.01 (Graph Pad Software, San Diego, USA).

Q: `C[C@@H]1C(=O)N[C@@H](CCCNC(=N)N)C(=O)N[C@@H](Cc2ccc3ccccc3c2)C(=O)NCC(=O)N[C@H](Cc2ccc(O)cc2)C(=O)N1CCCCCCNC(=N)N` [CPCR4.3, cyclo(-D-Tyr^1-D-[N-hexyl-6-guanidino]Ala^2-Arg^3-Nal^4-Gly^5-)] (cyclo([dY][dAla(N-(6-guanidinohexyl))]R[2Nal]G)) was tested. Which IC50 (hCXCR4) did it give?
A: 2.8 ± 1.1 nM

Q: What about the IC50 (mCXCR4) of the same compound?
A: 0.8 ± 0.1 nM

Q: With “Ga-Pentixafor: natGa complex of the cyclic pentapeptide Pentixafor, hCXCR4 selective reference ligand” as the compound, how does the IC50 (mCXCR4) read?
A: > 1000 nM

Q: How did the IC50 (hCXCR4) turn out when “Ga-Pentixafor: natGa complex of the cyclic pentapeptide Pentixafor, hCXCR4 selective reference ligand (YXRXG; Head-to-tail cyclic pentapeptide; The parent CPCR4.3 is printed as cyclo(-D-Tyr1-D-[N-hexyl-6-guanidino]Ala2-Arg3-Nal4-Gly5-); the text states that Pentixafor has D-Orn at position 2 instead of the N-)” was run?
A: 42.4 ± 11.6 nM

Q: `N=C(N)NCCC[C@@H]1NC(=O)[C@H](CCCNC(=N)N)NC(=O)[C@@H](Cc2ccc(O)cc2)NC(=O)CNC(=O)[C@H](Cc2ccc3ccccc3c2)NC1=O` [FC-131] was tested. Which “hCXCR4 affinity higher than [^natGa]Pentixafor” value (hCXCR4; assay conditions of this study) did it give?
A: more than 3 fold

Q: What about the IC50 (mCXCR4) of the same compound?
A: 119 ± 69 nM

Q: Which IC50 (hCXCR4) does the source give for `C[C@@H]1C(=O)N[C@@H](CCCNC(=N)N)C(=O)N[C@@H](Cc2ccc3ccccc3c2)C(=O)NCC(=O)N[C@H](Cc2ccc(O)c(I)c2)C(=O)N1CCCCCCNC(=N)N` [iodo-CPCR4.3] (cyclo([dTyr(3-I)][dAla(N-(6-guanidinohexyl))]R[2Nal]G)) here?
A: 5.4 ± 1.5 nM

Q: And the IC50 (mCXCR4)?
A: 4.9 ± 1.7 nM
